These results are taken from patent US20090253669A1, “Substituted Sulfonamide Compounds” (GRUENENTHAL GmbH, priority 2008, published 2009).

Assay [1] has as its target T1, human B1R receptor (hB1R) (Homo sapiens, UniProt P46663).
T1 construct: host or cells: CHO K1 cells
T1 sequence (P46663 1-353): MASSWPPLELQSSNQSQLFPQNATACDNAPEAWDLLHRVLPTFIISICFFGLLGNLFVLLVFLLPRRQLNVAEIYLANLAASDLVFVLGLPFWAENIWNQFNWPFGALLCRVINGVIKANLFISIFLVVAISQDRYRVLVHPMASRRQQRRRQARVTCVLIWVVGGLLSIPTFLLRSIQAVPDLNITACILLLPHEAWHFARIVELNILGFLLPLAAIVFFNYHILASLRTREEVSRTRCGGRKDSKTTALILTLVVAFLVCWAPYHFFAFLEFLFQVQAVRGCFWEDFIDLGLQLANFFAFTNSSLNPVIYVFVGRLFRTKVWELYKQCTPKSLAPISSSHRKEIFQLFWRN
The assay can be described thus: FLIPR Ca2+ assay on hB1R-transfected CHO K1 cells, antagonistic action. The class given is cell-based. The note with it: CHO-K1, 10 μM test substance; agonist Lys-Des-Arg9-bradykinin 0.5 nM; % of maximum achievable inhibition; read-out: hB1R [10 μM] % inhibition.

Assay [2] has as its target T2, B1R receptor of the rat (rB1R) (Rattus norvegicus, UniProt P97583).
T2 construct: host or cells: CHO K1 cells
T2 sequence (P97583 1-337): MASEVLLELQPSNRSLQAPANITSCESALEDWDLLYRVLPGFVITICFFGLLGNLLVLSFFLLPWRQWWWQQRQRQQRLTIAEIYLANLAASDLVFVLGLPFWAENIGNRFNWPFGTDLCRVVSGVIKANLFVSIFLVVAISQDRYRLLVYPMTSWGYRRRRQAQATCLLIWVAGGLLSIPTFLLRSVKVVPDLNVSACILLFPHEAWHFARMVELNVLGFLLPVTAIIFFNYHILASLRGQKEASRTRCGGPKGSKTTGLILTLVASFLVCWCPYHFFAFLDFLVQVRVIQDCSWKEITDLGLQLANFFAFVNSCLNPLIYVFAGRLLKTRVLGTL
The assay can be described thus: FLIPR Ca2+ assay on rB1R-transfected CHO K1 cells, antagonistic action. It counts as cell-based. As to conditions: CHO-K1, 10 μM test substance; agonist Des-Arg9-bradykinin 100 nM; % of maximum achievable inhibition; read-out: rB1R [10 μM] % inhibition.

One may read the inhibition as the relative decrease from the control value, in per cent. Regarding `Cc1cc(S(=O)(=O)N2CCCCC2CCC(=O)N(C)CCC2CCC(c3ccccc3)(N3CCCC3)CC2)c(C)cc1Cl` (stereo not drawn) [Compound 139, 3-(1-(4-chloro-2,5-dimethylphenylsulfonyl)piperidin-2-yl)-N-methyl-N-(2-(4-phenyl-4-(pyrrolidin-1-yl)cyclohexyl)ethyl)propanamide], the inhibition at 10 µM in assay [1] turned out to be 105%; in assay [2], 24%.

Take `Cc1cc(S(=O)(=O)N2CCCCC2CCC(=O)N(C)CC2CCC(c3ccccc3)(N3CCCC3)CC2)c(C)cc1Cl` (stereo not drawn) [Compound 140, 3-(1-(4-chloro-2,5-dimethylphenylsulfonyl)piperidin-2-yl)-N-methyl-N-((4-phenyl-4-(pyrrolidin-1-yl)cyclohexyl)methyl)propanamide]: the inhibition at 10 µM in assay [1] worked out at 103%; in assay [2], 21%.

As to `Cc1cc(S(=O)(=O)N2CCCCC2CCC(=O)N(C)CC2CCC(CCc3ccccc3)(N3CCCC3)CC2)c(C)cc1Cl` (stereo not drawn) [Compound 141, 3-(1-(4-chloro-2,5-dimethylphenylsulfonyl)piperidin-2-yl)-N-methyl-N-((4-phenethyl-4-(pyrrolidin-1-yl)cyclohexyl)methyl)propanamide], the inhibition at 10 µM in assay [1] is 104%; in assay [2], 20%.

Take `O=C(COCC1CCCCN1S(=O)(=O)c1c(Cl)cc(Cl)cc1Cl)NC1CCC(c2ccccc2)(N2CCCC2)CC1` (stereo not drawn) [Compound 142, N-(4-phenyl-4-(pyrrolidin-1-yl)cyclohexyl)-2-((1-(2,4,6-trichlorophenylsulfonyl)piperidin-2-yl)methoxy)acetamide]: the inhibition at 10 µM came out at 92% in assay [1] and 113% in assay [2].

Consider `COc1cc(C)c(S(=O)(=O)N2CCCCC2COCC(=O)N(C)CC2CCC(Cc3ccccc3)(N3CCN(C)CC3)CC2)c(C)c1` (stereo not drawn) [Compound 143, N-((4-benzyl-4-(4-methylpiperazin-1-yl)cyclohexyl)methyl)-2-((1-(4-methoxy-2,6-dimethylphenylsulfonyl)piperidin-2-yl)methoxy)-N-methylacetamide], for which the values for the inhibition at 10 µM in assay [1] and in assay [2] were 103% and 111%, respectively.

For the compound `COc1cc(C)c(S(=O)(=O)N2CCCCC2COCC(=O)N(C)CC2CCC(CCc3ccccc3)(N3CCN(C)CC3)CC2)c(C)c1` (stereo not drawn) [Compound 144, 2-((1-(4-methoxy-2,6-dimethylphenylsulfonyl)piperidin-2-yl)methoxy)-N-methyl-N-((4-(4-methylpiperazin-1-yl)-4-phenethylcyclohexyl)methyl)acetamide], the figures for the inhibition at 10 µM in assay [1] and in assay [2] were 103% and 111%, respectively.

Turning to `COc1cc(C)c(S(=O)(=O)N2CCCC2COCC(=O)NC2CCC(c3ccccc3)(N3CCCC3)CC2)c(C)c1` (stereo not drawn) [Compound 145, 2-((1-(4-methoxy-2,6-dimethylphenylsulfonyl)pyrrolidin-2-yl)methoxy)-N-(4-phenyl-4-(pyrrolidin-1-yl)cyclohexyl)acetamide], the inhibition at 10 µM was 92% in assay [1] and 110% in assay [2].

Take `O=C(COCC1CCCN1S(=O)(=O)c1c(Cl)cc(Cl)cc1Cl)NC1CCC(c2ccccc2)(N2CCCC2)CC1` (stereo not drawn) [Compound 146, N-(4-phenyl-4-(pyrrolidin-1-yl)cyclohexyl)-2-((1-(2,4,6-trichlorophenylsulfonyl)pyrrolidin-2-yl)methoxy)acetamide]: the inhibition at 10 µM in assay [1] is 64%; in assay [2] it was 108%.

With `COc1cc(C)c(S(=O)(=O)N2CCCCC2COCC(=O)NC2CCC(c3ccccc3)(N3CCCC3)CC2)c(C)c1` (stereo not drawn) [Compound 147, 2-((1-(4-methoxy-2,6-dimethylphenylsulfonyl)piperidin-2-yl)methoxy)-N-(4-phenyl-4-(pyrrolidin-1-yl)cyclohexyl)acetamide], the inhibition at 10 µM in assay [1] came out at 94%; in assay [2], 108%.

As to `COc1cc(C)c(S(=O)(=O)N2CCCC2COCC(=O)N(C)CC2CCC(CCc3ccccc3)(N3CCN(C)CC3)CC2)c(C)c1` (stereo not drawn) [Compound 148, 2-((1-(4-methoxy-2,6-dimethylphenylsulfonyl)pyrrolidin-2-yl)methoxy)-N-methyl-N-((4-(4-methylpiperazin-1-yl)-4-phenethylcyclohexyl)methyl)acetamide], the inhibition at 10 µM in assay [1] was determined as 102%; in assay [2], 106%.

Turning to `COc1cc(C)c(S(=O)(=O)N2CCCCC2COCC(=O)NC2CCC(Cc3ccccc3)(N3CCCC3)CC2)c(C)c1` (stereo not drawn) [Compound 149, N-(4-benzyl-4-(pyrrolidin-1-yl)cyclohexyl)-2-((1-(4-methoxy-2,6-dimethylphenylsulfonyl)piperidin-2-yl)methoxy)acetamide], the inhibition at 10 µM came out at 103% in assay [1] and 105% in assay [2].

In the case of `COc1cc(C)c(S(=O)(=O)N(C)CCOCC(=O)NC2CCC(c3ccccc3)(N3CCCC3)CC2)c(C)c1` (stereo not drawn) [Compound 150, 2-(2-(4-methoxy-N,2,6-trimethylphenylsulfonamido)ethoxy)-N-(4-phenyl-4-(pyrrolidin-1-yl)cyclohexyl)acetamide], the inhibition at 10 µM in assay [1] turned out to be 102%; in assay [2] it was 104%.

On to `COc1cc(C)c(S(=O)(=O)N2CCCC2COCC(=O)NC2CCC(Cc3ccccc3)(N3CCCC3)CC2)c(C)c1` (stereo not drawn) [Compound 151, N-(4-benzyl-4-(pyrrolidin-1-yl)cyclohexyl)-2-((1-(4-methoxy-2,6-dimethylphenylsulfonyl)pyrrolidin-2-yl)methoxy)acetamide], for which the inhibition at 10 µM in assay [1] is 90%; in assay [2], 103%.

On to `COc1cc(C)c(S(=O)(=O)N2CCCC2COCC(=O)NCC2CCC(c3ccccc3)(N3CCOCC3)CC2)c(C)c1` (stereo not drawn) [Compound 152, 2-((1-(4-methoxy-2,6-dimethylphenylsulfonyl)pyrrolidin-2-yl)methoxy)-N-((4-morpholino-4-phenylcyclohexyl)methyl)acetamide], for which the inhibition at 10 µM in assay [1] came out at 84%; in assay [2] it was 102%.

As to `COc1cc(C)c(S(=O)(=O)N2CCC(OCC(=O)NC3CCC(c4ccccc4)(N4CCCC4)CC3)C2)c(C)c1` (stereo not drawn) [Compound 153, 2-(1-(4-methoxy-2,6-dimethylphenylsulfonyl)pyrrolidin-3-yloxy)-N-(4-phenyl-4-(pyrrolidin-1-yl)cyclohexyl)acetamide], the inhibition at 10 µM worked out at 97% in assay [1] and 102% in assay [2].

Regarding `COc1cc(C)c(S(=O)(=O)N2CCCC2COCC(=O)N(C)CC2CCC(Cc3ccccc3)(N3CCN(C)CC3)CC2)c(C)c1` (stereo not drawn) [Compound 154, N-((4-benzyl-4-(4-methylpiperazin-1-yl)cyclohexyl)methyl)-2-((1-(4-methoxy-2,6-dimethylphenylsulfonyl)pyrrolidin-2-yl)methoxy)-N-methylacetamide], the figures for the inhibition at 10 µM in assay [1] and in assay [2] were 95% and 101%, respectively.

Take `COc1cc(C)c(S(=O)(=O)N2CCCCC2COCC(=O)NC2CCC(Cc3ccccc3)(N3CCOCC3)CC2)c(C)c1` (stereo not drawn) [Compound 155, N-(4-benzyl-4-morpholinocyclohexyl)-2-((1-(4-methoxy-2,6-dimethylphenylsulfonyl)piperidin-2-yl)methoxy)acetamide]: the inhibition at 10 µM came to 97% in assay [1] and 100% in assay [2].

For the compound `O=C(COCC1CCCN1S(=O)(=O)c1c(Cl)cc(Cl)cc1Cl)NC1CCC(Cc2ccccc2)(N2CCCC2)CC1` (stereo not drawn) [Compound 156, N-(4-benzyl-4-(pyrrolidin-1-yl)cyclohexyl)-2-((1-(2,4,6-trichlorophenylsulfonyl)pyrrolidin-2-yl)methoxy)acetamide], the inhibition at 10 µM in assay [1] was 76%; in assay [2], 100%.

Regarding `COc1cc(C)c(S(=O)(=O)N2CCCCC2COCC(=O)NCC2CCC(c3ccccc3)(N3CCOCC3)CC2)c(C)c1` (stereo not drawn) [Compound 157, 2-((1-(4-methoxy-2,6-dimethylphenylsulfonyl)piperidin-2-yl)methoxy)-N-((4-morpholino-4-phenylcyclohexyl)methyl)acetamide], the inhibition at 10 µM came to 76% in assay [1] and 99% in assay [2].

`COc1cc(C)c(S(=O)(=O)N2CCCCC2COCC(=O)NC2CCC(c3ccccc3)(N3CCOCC3)CC2)c(C)c1` (stereo not drawn) [Compound 158, 2-((1-(4-methoxy-2,6-dimethylphenylsulfonyl)piperidin-2-yl)methoxy)-N-(4-morpholino-4-phenylcyclohexyl)acetamide]: the inhibition at 10 µM worked out at 87% in assay [1] and 99% in assay [2].

`COc1cc(C)c(S(=O)(=O)N2CCCC2COCC(=O)NC2CCC(Cc3ccccc3)(N3CCOCC3)CC2)c(C)c1` (stereo not drawn) [Compound 159, N-(4-benzyl-4-morpholinocyclohexyl)-2-((1-(4-methoxy-2,6-dimethylphenylsulfonyl)pyrrolidin-2-yl)methoxy)acetamide]: the inhibition at 10 µM in assay [1] stood at 45%; in assay [2], 98%.
